Test results reported in US20260115162A1, “COMPOSITION OR ASSOCIATION OF COMPOUNDS PREFERABLY FOR USE IN THE TREATMENT OF NERVOUS DISEASES IN PARTICULAR NEURODEGENERATIVE DISEASES, METHOD FOR THE PREPARATION OF SUCH COMPOSITION OR ASSOCIATION OF COMPOUNDS AND USES THEREOF” (PHARMACEUTICA SAN MARCO S.R.L., priority 2022, published 2026).
Read-outs that look alike come from different tables or passages of the source.

Assays:
noradrenaline (NA) = experiment: Norepinephrine (NA) levels in mice treated with Aβ icv (FIG. 5b); format: in vivo; settings: PFC and HIPP
Protocol: (§1) The Aβ1-42, obtained from Tocris (Bristol, UK), was dissolved in sterile double-distilled pyrogenic-free water, as vehicle, to obtain a final concentration 4 μM [Colaianna M et al. 2010]. Mice were anesthetized with a solution (0.85 in ml/kg, i.p.), containing ketamine (Sigma Aldrich, Milan, Italy, 100 mg/10 ml), xylazine (Sigma Aldrich, Milan, Italy, 100 mg/10 ml) and acepromazine (prequillant, ATI Azienda Terapeutica Veterinaria Srl, 10 mg/10 ml) dissolved in saline solution. […] At the time of dissection, the correct needle track was assessed. […]
All behavioral experiments were conducted at 5 or 30 min after sublingual administrations of βBA or vehicle in mice treated with SHAM or AP. Based on the observed behavioral results, neurochemical and biochemical quantifications were performed 30 min after administration of βCP, FE, and βBA or vehicle in SHAM- or Aβ-treated mice. […]
5-HT, noradrenaline (NA), and KYN levels were measured in the PFC and HIPP of mice by HPLC coupled with an electrochemical detector (Ultimate ECD, Thermo Scientific Dionex, Milan, Italy) as already reported [Francavilla M et al. 2012, Morgese M G et al. 2016]. […] GLU concentrations were determined by HPLC coupled with fluorescence detection (emission length 460 nm; excitation length 340 nm), as previously published [Francavilla M et al. 2012]. […]

[1] = Pharmacokinetics of βBA and AKBA via os in healthy volunteers, fasted and hyperlipidic meal (Sterk V et al. 2004); format: in vivo, humans
Source text: Indeed, βBA has a concentration in the blood: • at least 6 times higher than AKBA both in the fasting condition and with a hyperlipidic meal; • increased by 6 times after hyperlipidic meal so that the plasma/os ratio passes from 0.09 to 0.55.

[2] = mice, via os, cited from earlier work
[3] = healthy volunteers, via os, cited from earlier work
[4] = Plasma levels of βBA and AKBA via os in patients (Gerbeth K et al. 2011); format: in vivo, humans
NF-kB = NF-kB in PFC and HIPP of mice treated with Aβ icv, Western blotting (FIG. 10); format: in vivo; settings: after 7 days
Protocol: as §1
(§2) The total amount of proteins was measured in homogenates by using Pierce BCA Assay (Thermo Fisher Scientific, Cleveland, OH, USA). […] After HRP-conjugated specific antibody incubation, ECL reagent (Bio-Rad Laboratories Inc., Segrate (MI), Italy) was added to the immune complex and chemiluminescence was detected by ChemiDoc MP system (Bio-Rad Laboratories Inc., Segrate (MI), Italy). Optical densities of the bands were measured using Image J software (http://rsb.info.nih.gov/ij/ accessed on 15 Mar. 2021) and normalized against bands relative to -actin (1:5,000, Abcam, Cambridge, UK).

PSD-95 = PSD-95 in PFC and HIPP of mice treated with Aβ icv, Western blotting (FIG. 12); format: in vivo; settings: after 7 days
Protocol: The βCP, FE, βBA and HA4 influence on prefrontal and hippocampal synaptic plasticity was evaluated using anti-PSD-95, anti-synaptophysin, anti-CaMKII antibodies.
as §1, §2

C[C@H]1[C@H](C)CC[C@]2(C)CC[C@]3(C)C(=CC[C@@H]4[C@@]5(C)CC[C@@H](O)[C@](C)(C(=O)O)[C@@H]5CC[C@]43C)[C@H]12 [βBA, β-boswellic acid]
Norepinephrine (NA) levels (noradrenaline (NA)): removes the reduction of NA induced by Aβ treatment and increases its expression in both PFC and HIPP compared with the control group | plasma/os ratio ([1]; after hyperlipidic meal): 0.55 | blood concentration of βBA relative to AKBA ([1]; both fasting and hyperlipidic meal): at least 6 times | plasma/os ratio ([1]; fasting condition): 0.09 | Δos/plasma ([1]; healthy volunteers, fasted conditions): 10.9 fasted | Δos/plasma ([1]; healthy volunteers, hyperlipidic fed conditions): 1.82 hyperlipidic | increase in blood concentration / intestinal absorption induced by a hyperlipidic meal ([1]; healthy volunteers, hyperlipidic meal vs fasted): 6 times | reduction of blood concentration compared to the dose introduced orally ([2]; intestinal mucosa to blood): up to 40 times | concentration in the brain [2]: 1,066 ng/g o ng/ml | concentration in the plasma [2]: 725 ng/g o ng/ml | concentration in the plasma ([3]; fasted conditions): 188.2 fasted ng/g o ng/ml | concentration in the plasma ([3]; hyperlipidic fed conditions): 1,120 hyperlipidic ng/g o ng/ml | Δos/plasma [4]: 14.3 | NF-kB tissue concentration (NF-kB): progressive removal of the pro-inflammatory effect induced by Aβ | PSD-95 tissue concentration (PSD-95): remove Aβ-induced alterations in a progressive manner
